Experimental data taken from PubChem BioAssay AID248 (DTP/NCI, 2004).
Where “and” joins values, the source holds several entries; their conditions need not be identical. Identical values can stand only once. Toxic doses and inconclusive results are not listed. Cut-off read from the data, not from the text of the source: active = T/C of 150% or more; inactive = T/C below 125%.

Tested on: L1210 leukemia ip in BDF1 mice, survival T/C
Assay: NCI In Vivo Anticancer Drug Screen. Data for tumor model L1210 Leukemia (intraperitoneal) in B6D2F1 (BDF1) mice
Details: endpoint: mean survival time, higher = longer survival
Procedure, shortened: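 Transplanted-tumor mice were given test agent; controls received vehicle only. Survival readings from the two groups were divided (treated over control).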

[1] = dose: 100.0 mg/kg/injection, schedule: Q04DX003 (ip), vehicle: saline with Tween-80
[2] = dose: 200.0 mg/kg/injection, schedule: Q04DX003 (ip), vehicle: saline with Tween-80
[3] = dose: 400.0 mg/kg/injection, schedule: Q04DX003 (ip), vehicle: saline with Tween-80
[4] = dose: 100.0 mg/kg/injection, schedule: Q01DX001 (ip), vehicle: saline
[5] = dose: 200.0 mg/kg/injection, schedule: Q01DX001 (ip), vehicle: saline
[6] = dose: 400.0 mg/kg/injection, schedule: Q01DX001 (ip), vehicle: saline
[7] = dose: 100.0 mg/kg/injection, schedule: Q04DX002 (ip), vehicle: Klucel (hydroxypropylcellulose) (HPC)
[8] = dose: 200.0 mg/kg/injection, schedule: Q04DX002 (ip), vehicle: Klucel (hydroxypropylcellulose) (HPC)
[9] = dose: 400.0 mg/kg/injection, schedule: Q04DX002 (ip), vehicle: Klucel (hydroxypropylcellulose) (HPC)
[10] = dose: 100.0 mg/kg/injection, schedule: Q01DX001 (ip), vehicle: Klucel (hydroxypropylcellulose) (HPC)
[11] = dose: 200.0 mg/kg/injection, schedule: Q01DX001 (ip), vehicle: Klucel (hydroxypropylcellulose) (HPC)
[12] = dose: 400.0 mg/kg/injection, schedule: Q01DX001 (ip), vehicle: Klucel (hydroxypropylcellulose) (HPC)
[13] = dose: 25.0 mg/kg/injection, schedule: Q01DX009 (ip), vehicle: saline
[14] = dose: 50.0 mg/kg/injection, schedule: Q01DX009 (ip), vehicle: saline
[15] = dose: 100.0 mg/kg/injection, schedule: Q01DX009 (ip), vehicle: saline
[16] = dose: 100.0 mg/kg/injection, schedule: Q01DX009 (ip), vehicle: Klucel (hydroxypropylcellulose) (HPC)
[17] = dose: 200.0 mg/kg/injection, schedule: Q01DX009 (ip), vehicle: Klucel (hydroxypropylcellulose) (HPC)
[18] = dose: 25.0 mg/kg/injection, schedule: Q04DX003 (ip), vehicle: saline
[19] = dose: 50.0 mg/kg/injection, schedule: Q04DX003 (ip), vehicle: saline
[20] = dose: 100.0 mg/kg/injection, schedule: Q04DX003 (ip), vehicle: saline
[21] = dose: 25.0 mg/kg/injection, schedule: Q01DX009 (ip), vehicle: Klucel (hydroxypropylcellulose) (HPC)
[22] = dose: 50.0 mg/kg/injection, schedule: Q01DX009 (ip), vehicle: Klucel (hydroxypropylcellulose) (HPC)

Measured: T/C

CN(C)C(=O)C1C2C=CC(C2)C1C(=O)N(C)C (stereo not given)
inactive: [1] 98 % of control | [2] 95 % of control | [3] 98 % of control

O=CO.[Cr]
inactive: [4] 102 % of control | [5] 98 % of control | [6] 98 % of control

CCOC(=O)c1ccccc1NC(=O)c1ccccc1
inactive: [7] 100 % of control | [8] 103 % of control | [9] 103 % of control

CCCCC#CC(O)(C(=O)OC)c1ccccc1 (stereo not given)
inactive: dose: 100.0 mg/kg/injection, schedule: Q01DX001 (ip), vehicle: other 107 % of control | dose: 200.0 mg/kg/injection, schedule: Q01DX001 (ip), vehicle: other 110 % of control | dose: 400.0 mg/kg/injection, schedule: Q01DX001 (ip), vehicle: other 94 % of control

CCCCCCCCC(=O)Cl
inactive: dose: 100.0 mg/kg/injection, schedule: Q04DX002 (ip), vehicle: saline 100 % of control | dose: 200.0 mg/kg/injection, schedule: Q04DX002 (ip), vehicle: saline 100 % of control | dose: 400.0 mg/kg/injection, schedule: Q04DX002 (ip), vehicle: saline 103 % of control

COC(=N\S(=O)(=O)c1ccccc1)/C(=N\S(=O)(=O)c1ccccc1)OC
inactive: [10] 100 % of control | [11] 104 % of control | [12] 102 % of control

CC1(C)SC2C(NC(=O)C(C(=O)O)c3ccccc3)C(=O)N2C1C(=O)O (stereo not given)
inactive: [13] 103 % of control | dose: 50.0 mg/kg/injection, schedule: Q01DX001 (ip), vehicle: saline 107 % of control | [14] 103 % of control | [4] 95 % of control | [15] 100 % of control and 101 % of control | [5] 102 % of control | dose: 200.0 mg/kg/injection, schedule: Q01DX009 (ip), vehicle: saline 105 % of control | [6] 101 % of control | dose: 400.0 mg/kg/injection, schedule: Q01DX009 (ip), vehicle: saline 100 % of control

O=c1cc[nH]c2c([N+](=O)[O-])cccc12
inactive: [4] 99 % of control | [5] 96 % of control

S=C(NCc1ccccc1)NCc1ccccc1
inactive: [7] 94 % of control and 87 % of control | [8] 87 % of control | [9] 90 % of control

CC(=O)C1=CC[C@H]2[C@@H]3CCC4=CC(=O)CC[C@]4(C)[C@H]3C(=O)C[C@]12C
inactive: dose: 50.0 mg/kg/injection, schedule: Q01DX Z (sc), vehicle: steriod suspending solution 102 % of control | dose: 250.0 mg/kg/injection, schedule: Q01DX Z (sc), vehicle: steriod suspending solution 101 % of control | dose: 500.0 mg/kg/injection, schedule: Q01DX Z (sc), vehicle: steriod suspending solution 102 % of control

CN(C)C(=O)Sc1cc(Cl)c(S(=O)(=O)F)cc1Cl
inactive: [16] 97 % of control | [17] 100 % of control | dose: 400.0 mg/kg/injection, schedule: Q01DX009 (ip), vehicle: Klucel (hydroxypropylcellulose) (HPC) 90 % of control

CC(=O)C1=C(C)NC(C)=C(C(C)=O)C1c1ccccc1
inactive: [1] 96 % of control | [2] 96 % of control | [3] 98 % of control

ClC1=C(Cl)C2(Cl)CC1(Cl)C1OC12 (stereo not given)
inactive: dose: 12.5 mg/kg/injection, schedule: Q01DX009 (ip), vehicle: saline with Tween-80 104 % of control | dose: 25.0 mg/kg/injection, schedule: Q01DX009 (ip), vehicle: saline with Tween-80 104 % of control | dose: 50.0 mg/kg/injection, schedule: Q01DX009 (ip), vehicle: saline with Tween-80 96 % of control

Cc1cc(C(C)(C)C)ccc1S(=O)(=O)C1CC1c1ccccc1 (stereo not given)
inactive: [4] 98 % of control | [5] 102 % of control | [6] 98 % of control

CC1(C)N=C(N)N=C(N)N1c1cccc(C(=O)Nc2cccc(S(=O)(=O)F)c2)c1
inactive: dose: 6.25 mg/kg/injection, schedule: Q#A X018 (ip), vehicle: saline 97 % of control | dose: 12.5 mg/kg/injection, schedule: Q01DX009 (ip), vehicle: saline 103 % of control | dose: 12.5 mg/kg/injection, schedule: Q#A X018 (ip), vehicle: saline 101 % of control | [13] 101 % of control | dose: 25.0 mg/kg/injection, schedule: Q#A X018 (ip), vehicle: saline 101 % of control | [14] 95 % of control and 107 % of control | dose: 50.0 mg/kg/injection, schedule: Q#A X018 (ip), vehicle: saline 101 % of control | [4] 105 % of control | [15] 104 % of control | [5] 94 % of control

O=C(C[n+]1ccc2ccccc2c1)c1ccc(-c2ccccc2)cc1
inactive: [18] 98 % of control | [19] 105 % of control | [4] 94 % of control | [20] 100 % of control | [5] 101 % of control

COC(=O)CC(CC(=O)OC)c1ccc(OC)c([N+](=O)[O-])c1
inactive: dose: 25.6 mg/kg/injection, schedule: Q04DX002 (ip), vehicle: saline with Tween-80 101 % of control | dose: 64.0 mg/kg/injection, schedule: Q04DX002 (ip), vehicle: saline with Tween-80 101 % of control | dose: 160.0 mg/kg/injection, schedule: Q04DX002 (ip), vehicle: saline with Tween-80 97 % of control | dose: 400.0 mg/kg/injection, schedule: Q04DX002 (ip), vehicle: saline with Tween-80 93 % of control

O=C1OCc2c1cc1n(c2=O)Cc2cc3ccccc3nc2-1
inactive: [10] 89 % of control | [11] 89 % of control | [12] 103 % of control

O=C(COc1ccc(Cl)c(Cl)c1)NCc1ccc[n+](Cc2ccc(Cl)c(S(=O)(=O)F)c2)c1
inactive: [18] 114 % of control | [19] 118 % of control | [20] 100 % of control and 112 % of control

ClC(Cl)(Cl)C(Cl)(Cl)OC(Cl)(Cl)C(Cl)(Cl)Cl
inactive: [10] 107 % of control | dose: 100.0 mg/kg/injection, schedule: Q04DX003 (ip), vehicle: Klucel (hydroxypropylcellulose) (HPC) 100 % of control | [11] 112 % of control | dose: 200.0 mg/kg/injection, schedule: Q04DX003 (ip), vehicle: Klucel (hydroxypropylcellulose) (HPC) 92 % of control | [12] 95 % of control | dose: 400.0 mg/kg/injection, schedule: Q04DX003 (ip), vehicle: Klucel (hydroxypropylcellulose) (HPC) 95 % of control

Cc1ccc(CNC(=S)NC2CCCCC2)cc1C
inactive: [21] 97 % of control | [22] 93 % of control | [16] 93 % of control

C[n+]1ccccc1C(=O)O
inactive: [4] 97 % of control | [20] 97 % of control | [5] 106 % of control | dose: 200.0 mg/kg/injection, schedule: Q04DX003 (ip), vehicle: saline 95 % of control | [6] 101 % of control | dose: 400.0 mg/kg/injection, schedule: Q04DX003 (ip), vehicle: saline 92 % of control

COc1ccc(OC)c(/C=C/c2ccc(NC(=O)Nc3ccccc3Cl)cc2)c1
inactive: dose: 12.5 mg/kg/injection, schedule: Q01DX009 (ip), vehicle: Klucel (hydroxypropylcellulose) (HPC) 93 % of control | [21] 89 % of control | [22] 91 % of control | [7] 88 % of control | [17] 93 % of control and 86 % of control | [8] 88 % of control | dose: 300.0 mg/kg/injection, schedule: Q01DX009 (ip), vehicle: Klucel (hydroxypropylcellulose) (HPC) 106 % of control and 89 % of control

CSc1ccccc1C=Nc1ccccc1O
inactive: dose: 100.0 mg/kg/injection, schedule: Q01DX001 (ip), vehicle: saline with Tween-80 101 % of control | dose: 200.0 mg/kg/injection, schedule: Q01DX001 (ip), vehicle: saline with Tween-80 98 % of control | dose: 400.0 mg/kg/injection, schedule: Q01DX001 (ip), vehicle: saline with Tween-80 103 % of control

CCN(CC)CCOc1ccc(N=N/C(C(C)=O)=C(\C)O)cc1
inactive: dose: 25.0 mg/kg/injection, schedule: Q04DX002 (ip), vehicle: saline 93 % of control and 96 % of control | dose: 50.0 mg/kg/injection, schedule: Q04DX002 (ip), vehicle: saline 101 % of control and 104 % of control

Clc1ccc(-n2cnnn2)cc1
inactive: [4] 98 % of control | [5] 98 % of control

CCOc1ccc2ccsc2c1
inactive: [4] 98 % of control | [5] 98 % of control | [6] 96 % of control

Nc1csc2ncccc12
inactive: [10] 112 % of control | [11] 105 % of control | [12] 114 % of control

O=C(CCCCNC(=O)C1CCCN1Sc1ccc([N+](=O)[O-])cc1[N+](=O)[O-])OCc1ccccc1 (stereo not given)
inactive: [7] 90 % of control | [8] 94 % of control | [9] 94 % of control
